The source of these data is patent US20240057587A1, “ORGANIC AMMONIUM SALT AND HYDROGEN-BONDING MATERIAL TREATMENT AGENT USING SAME” (MIYOSHI OIL & FAT CO.,LTD., priority 2019, published 2024).

Where two headings read alike, the source gives them in different places.

The target in experiment [1] is T1, cytochrome C (Equus caballus, UniProt P00004).
T1 construct: a reagent produced by NACALAI TESQUE, INC; (Horse Heart, molecular weight 12384) was used; purchased NACALAI TESQUE, INC; host or cells: horse heart (tissue origin)
The experiment is described as follows: Protein long-term stability (IR and UV spectrum), solid sample. On the set-up: species or system Horse.

Experiment [2] deals with T2, urease (Canavalia ensiformis, UniProt P07374). In kind it is biochemical, sword bean.
The target in experiment [3] is T2, urease. In kind it is biochemical, sword bean. This is another data set of the same source.
In experiment [4] the target is T2, urease. In kind it is biochemical, sword bean. This is another data set of the same source.
For experiment [5], the target named is T1, cytochrome C. Nature of the experiment: Protein long-term stability, 50% aqueous solution. Further details: species or system Horse. On the procedure: At first, changes in amide absorption by IR spectrum were precisely observed, and there were confirmed the higher-order structures of protein (turn, α-helix, random coil, β-sheet). The amide I region (1,600 to 1,700 cm^−1) and the amide II region (1,500 to 1,600 cm^−1) were measured by ATR method using a Fourier transform infrared spectrophotometer (FT/IR-6100 by JASCO Corporation), and peaks were then detected based on a difference(s) between a cytochrome C-free organic ammonium salt sample (blank) and a cytochrome C-containing organic ammonium salt sample (sample).
Further, the activity state of cytochrome C (Fe^2+: reduced form, Fe^3+: oxidized form) was confirmed via absorptions in UV spectrum. The measurement was conducted using an ultraviolet-visible spectrophotometer and a quartz cell having an optical path width of 2 mm, immediately after diluting the cytochrome C-containing organic ammonium salt sample to 1% with a 50 mM phosphate buffer of pH 7.4 (prepared using 50 mM potassium dihydrogen phosphate and 50 mM dipotassium hydrogen phosphate).

[6] abbreviates: cytochrome C, solid sample, 40° C., 80% RH, after 30 days, Stabilizer:Protein = 0.1:1.
Setting [7] is: cytochrome C, solid sample, 40° C., 80% RH, after 30 days, Stabilizer:Protein = 1:1.
Setting [8] is: cytochrome C, solid sample, 40° C., 80% RH, after 30 days, Stabilizer:Protein = 10:1.
The mark [9] stands for this setting: urease, solid sample mixed by mortar, 40° C., 80% RH, after 30 days, 1:1.
Setting [10] is: urease, solid sample, solvent distilled away from dissolution solution, 40° C., 80% RH, after 30 days, 1:1.
The mark [11] stands for this setting: urease in 50 wt % aqueous solution of compound, 40° C., 80% RH, after 30 days, Stabilizer:Enzyme = 1:1.
The mark [12] stands for this setting: solid sample, 40° C., 80% RH, after 30 days, Stabilizer:Enzyme = 0.1:1.
The mark [13] stands for this setting: solid sample, 40° C., 80% RH, after 30 days, Stabilizer:Enzyme = 1:1.
The mark [14] stands for this setting: solid sample, 40° C., 80% RH, after 30 days, Stabilizer:Enzyme = 10:1.
The mark [15] stands for this setting: cytochrome C in 50 wt % aqueous solution of compound, 40° C., after 30 days, 1:1.

T2 sequence (P07374 whole entry, looked up): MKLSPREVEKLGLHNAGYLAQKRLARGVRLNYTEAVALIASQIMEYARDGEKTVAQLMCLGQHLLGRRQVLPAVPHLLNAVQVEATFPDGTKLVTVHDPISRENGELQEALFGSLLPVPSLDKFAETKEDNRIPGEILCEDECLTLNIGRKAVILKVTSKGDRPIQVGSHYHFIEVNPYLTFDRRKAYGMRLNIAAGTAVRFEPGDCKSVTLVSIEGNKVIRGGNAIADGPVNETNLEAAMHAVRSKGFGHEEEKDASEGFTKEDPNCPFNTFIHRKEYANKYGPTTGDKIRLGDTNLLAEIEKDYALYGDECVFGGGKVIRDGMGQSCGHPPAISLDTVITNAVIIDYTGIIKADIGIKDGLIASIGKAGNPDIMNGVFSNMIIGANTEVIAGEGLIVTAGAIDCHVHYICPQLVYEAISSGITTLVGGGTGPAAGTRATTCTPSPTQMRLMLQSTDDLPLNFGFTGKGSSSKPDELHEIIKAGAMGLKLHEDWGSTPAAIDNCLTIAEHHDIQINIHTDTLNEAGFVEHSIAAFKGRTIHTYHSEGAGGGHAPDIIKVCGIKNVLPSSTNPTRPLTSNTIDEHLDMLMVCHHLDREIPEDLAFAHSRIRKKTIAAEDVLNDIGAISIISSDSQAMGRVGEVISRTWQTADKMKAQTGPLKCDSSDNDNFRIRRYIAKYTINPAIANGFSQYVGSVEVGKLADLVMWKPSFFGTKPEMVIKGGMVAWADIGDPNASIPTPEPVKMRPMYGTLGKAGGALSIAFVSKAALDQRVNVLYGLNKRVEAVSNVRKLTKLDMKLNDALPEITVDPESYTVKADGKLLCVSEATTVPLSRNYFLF
T1 sequence (P00004 whole entry): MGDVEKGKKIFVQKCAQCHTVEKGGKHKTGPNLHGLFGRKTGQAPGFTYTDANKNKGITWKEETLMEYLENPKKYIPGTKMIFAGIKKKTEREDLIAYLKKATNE

On to `O=C[C@H](O)[C@@H](O)[C@H](O)[C@H](O)CO` [Comparative example 4, Glucose, reference compound], for which the “Protein long-term stability (after 30 days) Stabilizer: Protein = 0.1:1” value (“Protein long-term stability … Protein = 0.1:1” for short) in experiment [1] (setting [6]) was “×”. In addition, in experiment [1] (setting [7]), the “Protein long-term stability (after 30 days) Stabilizer: Protein = 1:1” value is “×”. In experiment [1] (setting [8]), the “Protein long-term stability (after 30 days) Stabilizer: Protein = 10:1” value (“Protein long-term stability … Protein = 10:1” below) was “×”. In addition, in experiment [2], the “Enzyme activity retention rate (%) (after 30 days) Stabilizer:Enzyme = 1:1, Mixed by mortar” value (from here on “Enzyme activity retention rate (%) … by mortar”) was found to be 0% and the “Enzyme activity retention rate (%) (after 30 days) Stabilizer:Enzyme = 1:1, Solvent distilled away from dissolution solution” value was determined as 0%. Moreover, the “Enzyme activity retention rate(%) (after 30 days) Stabilizer: Enzyme = 1:1” value (“Enzyme activity retention rate(%) … Enzyme = 1:1” for short) in experiment [3] is on record as 0%. For the same compound, in experiment [4], the “Enzyme activity retention rate(%) (after 30 days) Stabilizer: Enzyme = 0.1:1” value is reported as 0%, the “Enzyme activity retention rate(%) … Enzyme = 1:1” value was 0% and the “Enzyme activity retention rate(%) (after 30 days) Stabilizer: Enzyme = 10:1” value worked out at 0%.
With `NC(CO)(CO)CO.O=C(O)c1ccccc1` [Working example 60], in experiment [1], the “Protein long-term stability … Protein = 0.1:1” value was “◯”, the “Protein long-term stability (after 30 days) Stabilizer: Protein = 1:1” value was “◯” and the “Protein long-term stability … Protein = 10:1” value is recorded as “◯”. In addition, the “Enzyme activity retention rate (%) … by mortar” value in experiment [2] (setting [9]) came out at 0%. Moreover, in experiment [2] (setting [10]), the “Enzyme activity retention rate (%) (after 30 days) Stabilizer:Enzyme = 1:1, Solvent distilled away from dissolution solution” value is on record as 20%. Besides, the “Enzyme activity retention rate(%) … Enzyme = 1:1” value in experiment [3] (setting [11]) was found to be 21%. Further, the “Enzyme activity retention rate(%) (after 30 days) Stabilizer: Enzyme = 0.1:1” value in experiment [4] (setting [12]) stood at 7%. For the same compound, in experiment [4] (setting [13]), the “Enzyme activity retention rate(%) … Enzyme = 1:1” value was 20%. Further, the “Enzyme activity retention rate(%) (after 30 days) Stabilizer: Enzyme = 10:1” value in experiment [4] (setting [14]) is given as 29%. The “Protein long-term stability (after 30 days) Stabilize:Protein = 1:1” value in experiment [5] is recorded as “○ ○ ○”.
With `OCCNCCO` [Working example 24], the “Protein long-term stability … Protein = 0.1:1” value in experiment [1] (setting [6]) was “◯”. Also, the “Protein long-term stability (after 30 days) Stabilizer: Protein = 1:1” value in experiment [1] (setting [7]) was “◯”. Besides, the “Protein long-term stability … Protein = 10:1” value in experiment [1] (setting [8]) is recorded as “◯”. Besides, the “Enzyme activity retention rate (%) … by mortar” value in experiment [2] (setting [9]) is 5%. Besides, the “Enzyme activity retention rate (%) (after 30 days) Stabilizer:Enzyme = 1:1, Solvent distilled away from dissolution solution” value in experiment [2] (setting [10]) is on record as 25%. Moreover, the “Enzyme activity retention rate(%) … Enzyme = 1:1” value turned out to be 10% in experiment [3] (setting [11]) and 25% in experiment [4] (setting [13]). In addition, in experiment [4] (setting [12]), the “Enzyme activity retention rate(%) (after 30 days) Stabilizer: Enzyme = 0.1:1” value is reported as 9%. Further, the “Enzyme activity retention rate(%) (after 30 days) Stabilizer: Enzyme = 10:1” value in experiment [4] (setting [14]) worked out at 25%. Besides, the “Protein long-term stability (after 30 days) Stabilize:Protein = 1:1” value in experiment [5] (setting [15]) is recorded as “○”.
For the compound `CC(O)C(=O)O.CCCCN(CCCC)CCCC` [Comparative example 1, Tributyl Ammonium Lactate, reference compound], in experiment [1], the “Protein long-term stability … Protein = 0.1:1” value is “×”, the “Protein long-term stability (after 30 days) Stabilizer: Protein = 1:1” value is reported as “×” and the “Protein long-term stability … Protein = 10:1” value is reported as “×”. Further, in experiment [2], the “Enzyme activity retention rate (%) … by mortar” value is reported as 0% and the “Enzyme activity retention rate (%) (after 30 days) Stabilizer:Enzyme = 1:1, Solvent distilled away from dissolution solution” value is listed as 0%. The “Enzyme activity retention rate(%) … Enzyme = 1:1” value in experiment [3] came out at 0%. Moreover, in experiment [4], the “Enzyme activity retention rate(%) (after 30 days) Stabilizer: Enzyme = 0.1:1” value is listed as 0%, the “Enzyme activity retention rate(%) … Enzyme = 1:1” value turned out to be 0% and the “Enzyme activity retention rate(%) (after 30 days) Stabilizer: Enzyme = 10:1” value is 0%.
As to `NC(CO)(CO)CO` [Working example 83], the “Protein long-term stability … Protein = 0.1:1” value in experiment [1] (setting [6]) was “◯”. The “Protein long-term stability (after 30 days) Stabilizer: Protein = 1:1” value in experiment [1] (setting [7]) is on record as “◯”. For the same compound, the “Protein long-term stability … Protein = 10:1” value in experiment [1] (setting [8]) was “◯”. Moreover, in experiment [2] (setting [9]), the “Enzyme activity retention rate (%) … by mortar” value is recorded as 0%. The “Enzyme activity retention rate (%) (after 30 days) Stabilizer:Enzyme = 1:1, Solvent distilled away from dissolution solution” value in experiment [2] (setting [10]) is on record as 24%. The “Enzyme activity retention rate(%) … Enzyme = 1:1” value in experiment [3] (setting [11]) is given as 20%; in experiment [4] (setting [13]), 24%. The “Enzyme activity retention rate(%) (after 30 days) Stabilizer: Enzyme = 0.1:1” value in experiment [4] (setting [12]) is 16%. In addition, the “Enzyme activity retention rate(%) (after 30 days) Stabilizer: Enzyme = 10:1” value in experiment [4] (setting [14]) is recorded as 38%. For the same compound, the “Protein long-term stability (after 30 days) Stabilize:Protein = 1:1” value in experiment [5] (setting [15]) is on record as “○ ○ ○”.
Consider `NCC(O)C(O)C(O)C(O)CO` (centres unmarked) [Working example 29], for which the “Protein long-term stability … Protein = 0.1:1” value in experiment [1] (setting [6]) is reported as “◯”. The “Protein long-term stability (after 30 days) Stabilizer: Protein = 1:1” value in experiment [1] (setting [7]) is listed as “◯”. The “Protein long-term stability … Protein = 10:1” value in experiment [1] (setting [8]) is listed as “◯”. Further, the “Enzyme activity retention rate (%) … by mortar” value in experiment [2] (setting [9]) is on record as 0%. For the same compound, the “Enzyme activity retention rate (%) (after 30 days) Stabilizer:Enzyme = 1:1, Solvent distilled away from dissolution solution” value in experiment [2] (setting [10]) is 18%. Also, the entries for the “Enzyme activity retention rate(%) … Enzyme = 1:1” value in experiment [3] (setting [11]) and in experiment [4] (setting [13]) were 11% and 18%, respectively. The “Enzyme activity retention rate(%) (after 30 days) Stabilizer: Enzyme = 0.1:1” value in experiment [4] (setting [12]) came out at 5%. The “Enzyme activity retention rate(%) (after 30 days) Stabilizer: Enzyme = 10:1” value in experiment [4] (setting [14]) was 21%. Besides, the “Protein long-term stability (after 30 days) Stabilize:Protein = 1:1” value in experiment [5] (setting [15]) was “○”.
`CCCCn1cc[n+](C)c1.[Br-]` [Comparative example 3, BMI-Br, reference compound]: in experiment [1] (setting [6]), the “Protein long-term stability … Protein = 0.1:1” value is reported as “×”. Moreover, the “Protein long-term stability (after 30 days) Stabilizer: Protein = 1:1” value in experiment [1] (setting [7]) is recorded as “×”. Besides, the “Protein long-term stability … Protein = 10:1” value in experiment [1] (setting [8]) is on record as “×”. Moreover, in experiment [2], the “Enzyme activity retention rate (%) … by mortar” value came to 0% and the “Enzyme activity retention rate (%) (after 30 days) Stabilizer:Enzyme = 1:1, Solvent distilled away from dissolution solution” value is reported as 0%. Also, the “Enzyme activity retention rate(%) … Enzyme = 1:1” value in experiment [3] was 0%. In experiment [4], the “Enzyme activity retention rate(%) (after 30 days) Stabilizer: Enzyme = 0.1:1” value turned out to be 0%, the “Enzyme activity retention rate(%) … Enzyme = 1:1” value worked out at 0% and the “Enzyme activity retention rate(%) (after 30 days) Stabilizer: Enzyme = 10:1” value is 0%.
Consider `NC(CO)(CO)CO` [Working example 3], for which, in experiment [1] (setting [6]), the “Protein long-term stability … Protein = 0.1:1” value was “◯”. For the same compound, in experiment [1] (setting [7]), the “Protein long-term stability (after 30 days) Stabilizer: Protein = 1:1” value was “◯”. Besides, in experiment [1] (setting [8]), the “Protein long-term stability … Protein = 10:1” value is “◯”. The “Enzyme activity retention rate (%) … by mortar” value in experiment [2] (setting [9]) worked out at 11%. The “Enzyme activity retention rate (%) (after 30 days) Stabilizer:Enzyme = 1:1, Solvent distilled away from dissolution solution” value in experiment [2] (setting [10]) was 50%. The “Enzyme activity retention rate(%) … Enzyme = 1:1” value in experiment [3] (setting [11]) amounted to 32%; in experiment [4] (setting [13]) it was 50%. Also, in experiment [4] (setting [12]), the “Enzyme activity retention rate(%) (after 30 days) Stabilizer: Enzyme = 0.1:1” value was 20%. For the same compound, the “Enzyme activity retention rate(%) (after 30 days) Stabilizer: Enzyme = 10:1” value in experiment [4] (setting [14]) came out at 53%. In experiment [5] (setting [15]), the “Protein long-term stability (after 30 days) Stabilize:Protein = 1:1” value was “○ ○ ○”.
On to `CC(=O)[O-].C[N+](C)(C)CCO` [Comparative example 2, Choline Acetate, reference compound], for which, in experiment [1], the “Protein long-term stability … Protein = 0.1:1” value is recorded as “×”, the “Protein long-term stability (after 30 days) Stabilizer: Protein = 1:1” value is recorded as “×” and the “Protein long-term stability … Protein = 10:1” value was “×”. Also, the “Enzyme activity retention rate (%) … by mortar” value in experiment [2] (setting [9]) was found to be 0%. For the same compound, the “Enzyme activity retention rate (%) (after 30 days) Stabilizer:Enzyme = 1:1, Solvent distilled away from dissolution solution” value in experiment [2] (setting [10]) stood at 3%. The “Enzyme activity retention rate(%) … Enzyme = 1:1” value in experiment [3] (setting [11]) is on record as 2%. In experiment [4] (setting [12]), the “Enzyme activity retention rate(%) (after 30 days) Stabilizer: Enzyme = 0.1:1” value stood at 2%. In addition, in experiment [4] (setting [13]), the “Enzyme activity retention rate(%) … Enzyme = 1:1” value is recorded as 3%. Moreover, the “Enzyme activity retention rate(%) (after 30 days) Stabilizer: Enzyme = 10:1” value in experiment [4] (setting [14]) is on record as 0%.
